In US20240132521A1, “COMPOUNDS AND METHODS FOR MODULATING HER2” (Iambic Therapeutics, Inc., priority 2022, published 2024):

Tests used:
Type in all cases: cell-based
BaF3_EGFRWT cells = BaF3_EGFRWT cells (Homo sapiens, UniProt P00533); assay: Cell growth inhibition assay (CellTiterGlo), BaF3_EGFRWT; details: 3-day treatment, CellTiterGlo, read-out: Cell growth inhibition activity, EGFR WT
BaF3_HER2YVMA cells = BaF3_HER2YVMA cells (Homo sapiens, UniProt P04626, DUP772-775, cells depend on it); assay: Cell growth inhibition assay (CellTiterGlo), BaF3_HER2YVMA; details: 3-day treatment, CellTiterGlo, read-out: Cell growth inhibition activity, HER2 - YVMA
BaF3_HER2YVMA cells, sequence (P04626 with tags, fused parts or gaps DUP772-775): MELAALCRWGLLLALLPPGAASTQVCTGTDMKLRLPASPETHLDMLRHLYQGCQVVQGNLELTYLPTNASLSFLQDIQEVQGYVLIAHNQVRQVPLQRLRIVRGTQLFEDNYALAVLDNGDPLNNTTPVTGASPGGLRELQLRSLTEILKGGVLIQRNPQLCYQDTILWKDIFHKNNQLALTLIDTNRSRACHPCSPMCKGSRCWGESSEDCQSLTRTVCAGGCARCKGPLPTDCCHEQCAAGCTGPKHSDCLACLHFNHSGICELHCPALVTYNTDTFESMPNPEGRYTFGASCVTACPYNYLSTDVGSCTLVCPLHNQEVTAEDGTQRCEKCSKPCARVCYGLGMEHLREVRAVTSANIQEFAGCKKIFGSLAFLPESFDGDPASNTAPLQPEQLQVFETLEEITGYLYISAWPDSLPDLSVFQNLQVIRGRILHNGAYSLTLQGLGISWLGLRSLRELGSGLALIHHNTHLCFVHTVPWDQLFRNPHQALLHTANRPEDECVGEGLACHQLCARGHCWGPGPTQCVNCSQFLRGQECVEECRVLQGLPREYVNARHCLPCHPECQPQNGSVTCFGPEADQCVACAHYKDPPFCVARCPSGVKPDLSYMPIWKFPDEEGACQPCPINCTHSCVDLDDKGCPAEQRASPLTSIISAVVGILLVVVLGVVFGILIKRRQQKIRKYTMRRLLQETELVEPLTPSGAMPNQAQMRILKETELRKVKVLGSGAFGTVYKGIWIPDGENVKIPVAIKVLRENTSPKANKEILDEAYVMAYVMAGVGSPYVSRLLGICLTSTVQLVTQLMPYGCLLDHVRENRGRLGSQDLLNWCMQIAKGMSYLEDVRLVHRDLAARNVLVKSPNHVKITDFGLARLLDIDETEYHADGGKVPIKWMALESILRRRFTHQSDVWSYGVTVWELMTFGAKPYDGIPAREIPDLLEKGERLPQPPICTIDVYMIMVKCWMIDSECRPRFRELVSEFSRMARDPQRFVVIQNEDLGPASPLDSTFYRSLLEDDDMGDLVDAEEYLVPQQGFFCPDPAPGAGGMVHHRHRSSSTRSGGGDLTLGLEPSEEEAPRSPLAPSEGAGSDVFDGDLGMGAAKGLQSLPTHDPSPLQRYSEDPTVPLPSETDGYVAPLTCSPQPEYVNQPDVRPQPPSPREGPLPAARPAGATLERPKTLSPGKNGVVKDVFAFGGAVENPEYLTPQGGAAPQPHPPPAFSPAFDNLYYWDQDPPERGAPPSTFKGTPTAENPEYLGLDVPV

BaF3_HER2WT cells = BaF3_HER2WT cells (Homo sapiens, UniProt P04626); assay: Cell growth inhibition assay (CellTiterGlo), BaF3_HER2WT; details: 3-day treatment, CellTiterGlo, read-out: Cell growth inhibition activity, HER2 WT
BaF3_HER2WT cells, sequence (P04626 whole entry, change not shown): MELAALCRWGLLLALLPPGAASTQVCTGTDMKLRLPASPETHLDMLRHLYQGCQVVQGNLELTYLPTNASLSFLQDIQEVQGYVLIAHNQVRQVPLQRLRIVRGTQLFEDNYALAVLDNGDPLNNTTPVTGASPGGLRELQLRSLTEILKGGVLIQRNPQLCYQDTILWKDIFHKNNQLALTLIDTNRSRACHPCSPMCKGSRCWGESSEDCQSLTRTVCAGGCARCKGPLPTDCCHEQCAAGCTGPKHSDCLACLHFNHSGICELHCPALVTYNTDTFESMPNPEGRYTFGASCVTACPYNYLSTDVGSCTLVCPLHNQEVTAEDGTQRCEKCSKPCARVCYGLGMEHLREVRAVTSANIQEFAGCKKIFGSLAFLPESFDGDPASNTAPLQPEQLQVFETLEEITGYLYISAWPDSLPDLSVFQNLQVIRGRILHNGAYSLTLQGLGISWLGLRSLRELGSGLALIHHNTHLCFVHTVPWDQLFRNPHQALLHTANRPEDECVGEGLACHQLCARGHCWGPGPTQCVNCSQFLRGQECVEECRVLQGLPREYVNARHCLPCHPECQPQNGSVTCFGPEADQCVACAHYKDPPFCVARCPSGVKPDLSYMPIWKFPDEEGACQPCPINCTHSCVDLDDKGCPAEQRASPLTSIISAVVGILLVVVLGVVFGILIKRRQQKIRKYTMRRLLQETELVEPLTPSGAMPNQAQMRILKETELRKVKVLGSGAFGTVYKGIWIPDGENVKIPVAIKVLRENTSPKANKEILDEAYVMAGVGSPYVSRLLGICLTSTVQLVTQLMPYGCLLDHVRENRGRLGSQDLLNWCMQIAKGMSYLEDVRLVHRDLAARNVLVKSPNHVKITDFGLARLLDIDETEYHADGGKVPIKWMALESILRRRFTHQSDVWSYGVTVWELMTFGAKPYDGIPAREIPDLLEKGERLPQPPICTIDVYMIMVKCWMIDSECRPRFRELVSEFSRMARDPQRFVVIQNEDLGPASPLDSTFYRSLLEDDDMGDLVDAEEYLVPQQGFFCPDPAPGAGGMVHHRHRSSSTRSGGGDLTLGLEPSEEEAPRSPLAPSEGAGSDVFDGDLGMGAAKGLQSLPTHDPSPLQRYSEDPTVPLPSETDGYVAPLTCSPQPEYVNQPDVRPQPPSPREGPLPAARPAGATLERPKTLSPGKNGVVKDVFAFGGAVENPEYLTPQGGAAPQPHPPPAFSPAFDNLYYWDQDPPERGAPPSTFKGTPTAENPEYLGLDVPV

BaF3_EGFRWT cells, sequence (P00533 whole entry, change not shown): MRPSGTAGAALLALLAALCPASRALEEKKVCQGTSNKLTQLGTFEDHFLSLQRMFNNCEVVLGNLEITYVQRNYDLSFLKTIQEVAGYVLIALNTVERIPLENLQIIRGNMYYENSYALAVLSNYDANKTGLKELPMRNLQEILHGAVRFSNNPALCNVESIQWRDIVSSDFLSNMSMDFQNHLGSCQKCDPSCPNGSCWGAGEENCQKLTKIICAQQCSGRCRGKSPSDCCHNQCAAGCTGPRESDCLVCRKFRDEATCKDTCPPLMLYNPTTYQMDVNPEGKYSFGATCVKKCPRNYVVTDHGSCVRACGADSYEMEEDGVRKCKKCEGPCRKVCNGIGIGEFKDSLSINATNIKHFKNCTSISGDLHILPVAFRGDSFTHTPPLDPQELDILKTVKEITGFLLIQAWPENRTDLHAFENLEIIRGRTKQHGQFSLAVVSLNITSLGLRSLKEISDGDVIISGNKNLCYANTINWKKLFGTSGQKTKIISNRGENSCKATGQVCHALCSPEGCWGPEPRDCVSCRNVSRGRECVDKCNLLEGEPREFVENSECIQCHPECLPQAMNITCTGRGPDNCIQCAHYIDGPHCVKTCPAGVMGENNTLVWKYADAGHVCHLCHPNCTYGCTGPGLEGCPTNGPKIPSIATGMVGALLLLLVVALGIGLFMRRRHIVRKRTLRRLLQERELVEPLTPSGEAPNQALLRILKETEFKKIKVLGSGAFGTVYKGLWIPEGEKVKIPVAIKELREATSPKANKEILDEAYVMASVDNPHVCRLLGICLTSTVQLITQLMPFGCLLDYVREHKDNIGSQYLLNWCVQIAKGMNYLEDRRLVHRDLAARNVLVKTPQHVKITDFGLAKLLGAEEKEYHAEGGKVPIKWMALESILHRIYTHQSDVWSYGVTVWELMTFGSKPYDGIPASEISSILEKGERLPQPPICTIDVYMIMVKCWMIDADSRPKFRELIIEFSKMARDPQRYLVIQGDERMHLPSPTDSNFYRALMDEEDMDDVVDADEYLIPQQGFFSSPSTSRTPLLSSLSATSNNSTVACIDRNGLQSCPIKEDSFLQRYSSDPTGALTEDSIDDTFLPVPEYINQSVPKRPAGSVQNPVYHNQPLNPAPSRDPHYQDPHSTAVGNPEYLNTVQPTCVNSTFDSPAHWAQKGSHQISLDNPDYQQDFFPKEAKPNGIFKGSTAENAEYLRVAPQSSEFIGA

| Compound | GI50 (BaF3_EGFRWT cells) | GI50 (BaF3_HER2YVMA cells) | GI50 (BaF3_HER2WT cells) |
| --- | --- | --- | --- |
| Cc1cc(Nc2ncnn3ccc(C4CN(C(=O)/C(C#N)=C/C(C)(C)C)C4)c23)ccc1Oc1ccn2ncnc2c1 [Example 89, (E)-2-(3-(4-((4-([1,2,4]triazolo[1,5-a]pyridin-7-yloxy)-3-methylphenyl)amino)pyrolo[2,1-f][1,2,4]triazin-5-yl)azetidine-1-carbonyl)-4,4-dimethylpent-2-enenitrile] | 1500 to 5000 nM | 1500 to 5000 nM | 1500 to 5000 nM |
| COC1CN(C/C=C/C(=O)N2CCC(c3ccn4ncnc(Nc5ccc(Oc6ccn7ncnc7c6)c(C)c5)c34)CC2)C1 [Example 117, (E)-1-(4-(4-((4-([1,2,4]triazolo[1,5-a]217midazol-7-yloxy)-3-methylphenyl)amino)pyrrolo[2,1-f][1,2,4]triazin-5-yl)piperidin-1-yl)-4-(3-methoxyazetidin-1-yl)but-2-en-1-one] | 1500 to 5000 nM | < 200 nM | < 200 nM |
| C=CC(=O)N1CCN(c2ccn3ncnc(Nc4ccc(Oc5ccc6c(c5)ncn6C)c(C)c4)c23)CC1 [Example 121, 1-(4-(4-((3-methyl-4-((1-methyl-1H-benzo[d]imidazol-5-yl)oxy)phenyl)amino)pyrrolo[2,1-f][1,2,4]triazin-5-yl)piperazin-1-yl)prop-2-en-1-one] | 500 to 1500 nM | < 200 nM | < 200 nM |
| Cc1cc(Nc2ncnn3ccc(C4CCN(C(=O)/C=C/CN5CCC6(COC6)C5)CC4)c23)ccc1Oc1ccc2c(c1)ncn2C [Example 129, (E)-1-(4-(4-((3-methyl-4-((1-methyl-1H-benzo[d]imidazol-5-yl)-oxy)phenyl)amino)-pyrrolo[2,1-f][1,2,4]triazin-5-yl)piperidin-1-yl)-4-(2-oxa-6-azaspiro[3.4]octan-6-yl)but-2-en-1-one] | 1500 to 5000 nM | < 200 nM | < 200 nM |

Second part, the molecule after the results:

| GI50 (BaF3_EGFRWT cells) | GI50 (BaF3_HER2YVMA cells) | GI50 (BaF3_HER2WT cells) | Compound |
| --- | --- | --- | --- |
| 1500 to 5000 nM | < 200 nM | < 200 nM | Cc1cc(Nc2ncnn3ccc(C4CN(C(=O)/C(F)=C/C5CCCN5C)C4)c23)ccc1Oc1ccn2ncnc2c1 (stereo not drawn) [Example 92, (Z)-1-(3-(4-((4-([1,2,4]triazolo[1,5-a]pyridin-7-yloxy)-3-methylphenyl)amino)pyrrolo[2,1-f][1,2,4]triazin-5-yl)azetidin-1-yl)-2-fluoro-3-(1-methylpyrrolidin-2-yl)prop-2-en-1-one] |
| 1500 to 5000 nM | < 200 nM | < 200 nM | COC1CCN(C/C=C/C(=O)N2CCC(c3ccn4ncnc(Nc5ccc(Oc6ccn7ncnc7c6)c(C)c5)c34)CC2)C1 (stereo not drawn) [Example 118, E-1-(4-(4-((4-([1,2,4]triazolo[1,5-a]217midazol-7-yloxy)-3-methylphenyl)amino)pyrrolo[2,1-f][1,2,4]triazin-5-yl)piperidin-1-yl)-4-(3-methoxypyrrolidin-1-yl)but-2-en-1-one] |
| 1500 to 5000 nM | < 200 nM | < 200 nM | Cc1cc(Nc2ncnn3ccc(C4CCN(C(=O)/C=C/CN5CC6COCC6C5)CC4)c23)ccc1Oc1ccn2ncnc2c1 (stereo not drawn) [Example 119, E-1-(4-(4-((4-([1,2,4]triazolo[1,5-a]218midazol-7-yloxy)-3-methylphenyl)amino)pyrrolo[2,1-f][1,2,4]triazin-5-yl)piperidin-1-yl)-4-(tetrahydro-1H-furo[3,4-c]pyrrol-5(3H)-yl)but-2-en-1-one] |
| 1500 to 5000 nM | < 200 nM | < 200 nM | Cc1cc(Nc2ncnn3ccc(C4CCN(C(=O)/C=C/CN5CCC6(COC6)C5)CC4)c23)ccc1Oc1ccn2ncnc2c1 [Example 120, E-1-(4-(4-((4-([1,2,4]triazolo[1,5-a]218midazol-7-yloxy)-3-methylphenyl)amino)pyrrolo[2,1-f][1,2,4]triazin-5-yl)piperidin-1-yl)-4-(2-oxa-6-azaspiro[3.4]octan-6-yl)but-2-en-1-one] |
